Results as given in Sander's compilation of Henry's law constants (doi:10.1002/etc.5620111109).

Assay: Henry solubility constant Hcp at 293 K (mol/(m3 Pa))
Conditions: reference: ten Hulscher et al. (1992)

SMILES	Henry solubility constant Hcp at 293 K
Clc1cc(Cl)c(Cl)c(Cl)c1 [1,2,3,5-tetrachlorobenzene]	0.01
Clc1cc(Cl)cc(Cl)c1 [1,3,5-trichlorobenzene]	0.0052
Clc1cccc(Cl)c1Cl [1,2,3-trichlorobenzene]	0.014

Assay: Henry solubility constant Hcp at 298.15 K (mol/(m3 Pa))
Conditions: reference: ten Hulscher et al. (1992)

SMILES	Henry solubility constant Hcp
c1ccc2cc3c(cc2c1)-c1cccc2cccc-3c12 [benzo[k]fluoranthene]	17
Clc1ccc(Cl)c(-c2cc(Cl)ccc2Cl)c1 [2,2',5,5'-tetrachlorobiphenyl]	0.042
Clc1ccc(Cl)c(-c2ccccc2)c1 [2,5-dichlorobiphenyl]	0.023
c1ccc2c(c1)-c1cccc3c1c-2cc1ccccc13 [benzo[b]fluoranthene]	15
c1cc2ccc3ccc4ccc5cccc6c(c1)c2c3c4c56 [benzo[ghi]perylene]	30
c1ccc2c(c1)cc1ccc3cccc4ccc2c1c34 [benzo[a]pyrene]	22
c1ccc2c(c1)-c1cccc3cccc-2c13 [benzo[jk]fluorene]	1.1
c1ccc2c(c1)-c1ccc3ccc4cccc5cc-2c1c3c45 [indeno[1,2,3-cd]pyrene]	28
